Read-outs that look alike come from different tables or passages of the source.
What was measured:
HSV-1 F = experiment: anti-HSV screening test (cytopathogenic effect, fluorescein diacetate readout) in Vero cells, HSV-1 F; type: cell-based; details: read-out: IC50 [μM] HSV-1 F/Vero
Experimental: (§1) HSV (HSV-1 Walki, HSV-1F or HSV-2G) was cultivated on Vero cells (ATCC CCL-81) under the following conditions. The cells were grown in M199 medium (5% foetal calf serum, 2 mM glutamine, 100 IU/ml penicillin, 100 μg/ml streptomycin) in cell culture bottles at 37° C. and 5% CO2. The cells were split twice per week, in each case 1:4. For the infection, the medium was removed, the cells were washed with Hank's solution, detached using 0.05% trypsin, 0.02% EDTA (Seromed L2143) and incubated at a density of 4×10^5 cells per ml under the abovementioned conditions for 24 hours. The medium was then removed and the virus solution was added at an m.o.i. of <0.05 in a volume of 2 ml per 175 cm^2 of surface. The medium was incubated under the conditions mentioned for one hour and then made up to a volume of 50 ml per 175 cm^2 bottle. […] The virus was released by freezing (−80° C.) and thawing (37° C.) the cultures twice. Cell debris was removed by centrifugation (300 g, 10 min, 4° C.) and the supernatant was frozen down in aliquots at −80° C.
(§2) The anti-HSV action was determined in a screening test system in 96-well microtitre plates using various cell lines of neuronal, lymphoid and epithelial origin, such as, for example, Vero (kidney cell line of the green monkey), MEF (murine embryonal fibroblasts), HELF (human embryonal fibroblasts), NT2 (human neuronal cell line) or Jurkat (human lymphoid T-cell line).
(§3) The substances (50 mM), dissolved in DMSO (dimethyl sulphoxide), are examined on microtitre plates (for example 96-well MTP) in final concentrations of 250-0.5 μM (micromolar) in two replications (4 substances/plate). In the case of potent substances, the dilutions are continued for several plates up to 0.5 pM (picomolar). Also examined are toxic and cytostatic effects of the substances. After an appropriate dilution of the substances (1:2) on the microtitre plate in medium, a suspension of cells ([…] cells per well) such as, for example, of Vero cells in M199 (medium 199) with 5% foetal calf serum, 2 mM glutamine and optionally 100 IU/ml penicillin and 100 μg/ml streptomycin or of MEF cells in EMEM (Eagle's Minimum Essential Medium) with 10% foetal calf serum, 2 mM glutamine and optionally 100 IU/ml penicillin and 100 μg/ml streptomycin, or of HELF cells in EMEM with 10% foetal calf serum, 2 mM glutamine and optionally 100 IU/ml penicillin and 100 μg/ml streptomycin, or of NT2 and Jurkat cells in DMEM ([…] glucose plus pyridoxin) with 10% foetal calf serum, 2 mM glutamine, 1 mM sodium pyruvate, non-essential amino acids and optionally 100 IU/ml penicillin and 100 μg/ml streptomycin, is added to each well and the cells in the relevant wells are infected with an appropriate amount of virus (HSV-1 F or HSV-2 G having an m.o.i. (multiplicity of infection) of 0.0025 for HELF, Vero and MEF cells and an m.o.i. of 0.1 for NT2 and Jurkat cells). The plates are then incubated at 37° C. in a CO2 incubator (5% CO2) for several days. […] The plates are initially evaluated visually using a microscope and then analysed using a fluorescent dye. To this end, the cell supernatant of all wells of the MTP is aspirated and the wells are filled with 200 μl of PBS wash solution. The PBS is then aspirated and all the wells are filled with 200 μl of fluorescent dye solution (fluorescein diacetate, 10 μg/ml in PBS). After an incubation time of 30-90 min, the test plates are read in a fluorescence detector at an excitation wavelength of 485 nm and an emission wavelength of 538 nm.

HSV-2 G = experiment: anti-HSV screening test (cytopathogenic effect, fluorescein diacetate readout) in Vero cells, HSV-2 G; type: cell-based; details: read-out: IC50 [μM] HSV-2 G/Vero
Experimental: as §1, §2, §3

HSV-1 = experiment: in-vivo action: survival of intranasally HSV-infected mice; design: species or system BALB/cABom strain; details: HSV-1, intranasal infection 5×10^4 Pfu, female BALB/cABom mice; treated 3 times per day for 5 days from 6 hours after infection; from survival curves
Experimental: 6-week-old female mice, BALB/cABom strain were obtained from a commercial breeder (Bomholtgard Breeding and Research Centre Ltd.).
The animals were anaesthetized with diethyl ether (Merck) in a sealed glass vessel. 50 μl of a dilution of the virus stock (infection dose 5×10^4 Pfu) were introduced into the nose of the anaesthetized animals using an Eppendorf pipette. In 90-100% of the animals, this infection dose causes death by a generalized infection with prominent respiratory and central-nervous symptoms on average after 5 to 8 days.
6 hours after the infection, the animals were treated with doses of 0.1-100 mg/kg of body mass, 3 times per day, at 7 a.m., 2 p.m. and 7 p.m., for a period of 5 days. The substances were pre-dissolved in DMSO and resuspended in tylose/PBS (Hoechst) (final concentration 1.5% DMSO, 0.5% tylose in PBS).
After the last administration, the animals were monitored further and the time of death was determined.

[1] = Human alphaherpesvirus 1, HSV-1 F, Vero cells, half-maximal fluorescence intensity with respect to the non-infected cell control
[2] = Human alphaherpesvirus 2, HSV-2 G, Vero cells, half-maximal fluorescence intensity with respect to the non-infected cell control

Row | SMILES | IC50 (HSV-1 F; [1]) [µM] | IC50 (HSV-2 G; [2]) [µM] | IC50 (HSV-1 F; Human alphaherpesvirus 1, Vero) [µM] | IC50 (HSV-2 G; Human alphaherpesvirus 2, Vero) [µM] | ED90 (90% of the animals survive at this dose) (HSV-1)
1 | CCOc1ccc(NC(=O)C(C)c2nc(C)c(S(N)(=O)=O)s2)cc1 (centres unmarked) [Example 4, 2-[5-(Aminosulphonyl)-4-methyl-1,3-thiazol-2-yl]-N-(4-ethoxyphenyl)-propanamide] | 0.75 | 0.75 |  |  | 
2 | Cc1nc(C(C)C(=O)Nc2ccc(-c3ccccn3)cc2)sc1S(N)(=O)=O (centres unmarked) [Example 2, 2-[5-(Aminosulphonyl)-4-methyl-1,3-thiazol-2-yl]-N-[4-(2-pyridinyl)-phenyl]propanamide] | 0.2 | 0.4 |  |  | 
3 | Cc1nc(C(C)C(=O)Nc2ccc(-c3cc(F)ccc3F)cc2)sc1S(N)(=O)=O (centres unmarked) [Example 3, 2-[5-(Aminosulphonyl)-4-methyl-1,3-thiazol-2-yl]-N-(2′,5′-difluoro-1,1′-biphenyl-4-yl)propanamide] |  |  | 0.05 | 0.01 | about 3 mg/kg
4 | CNS(=O)(=O)c1sc(C(C)C(=O)Nc2ccc(-c3ccccc3)cc2)nc1C (centres unmarked) [Example 5, N-(1,1′-Biphenyl-4-yl)-2-{4-methyl-5-[(methylamino)sulphonyl]-1,3-thiazol-2-yl}propanamide] | 0.1 | 0.06 |  |  | 
5 | Cc1nc(C(C)C(=O)Nc2ccc(-c3ccccc3)cc2)sc1S(N)(=O)=O (centres unmarked) [Example 1, 2-[5-(Aminosulphonyl)-4-methyl-1,3-thiazol-2-yl]-N-(1,1′-biphenyl-4-yl)-propanamide] | 0.05 | 0.03 |  |  | 
